Assays:
[1] = biological target: T1, Type-2 angiotensin II receptor (Homo sapiens, UniProt P50052); experiment: Binding affinity for angiotensin II AT-2 receptor
T1 sequence (P50052 whole entry): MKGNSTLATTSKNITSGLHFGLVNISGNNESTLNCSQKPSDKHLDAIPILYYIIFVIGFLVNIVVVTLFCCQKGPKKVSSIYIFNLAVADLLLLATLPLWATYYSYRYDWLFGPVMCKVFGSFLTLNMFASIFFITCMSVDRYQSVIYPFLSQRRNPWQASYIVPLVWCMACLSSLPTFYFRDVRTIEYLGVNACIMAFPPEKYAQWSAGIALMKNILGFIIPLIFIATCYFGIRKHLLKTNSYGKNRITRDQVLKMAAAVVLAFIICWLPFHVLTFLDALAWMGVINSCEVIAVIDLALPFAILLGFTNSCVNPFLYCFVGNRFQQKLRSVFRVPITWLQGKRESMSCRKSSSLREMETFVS

[2] = test system: Rattus norvegicus; experiment: Antihypertensive activity of compound was measured in renal hypertensive rat after oral administration; assay type: functional
[3] = test system: Rattus norvegicus; experiment: Antihypertensive activity of compound was measured in renal hypertensive rat after iv administration; assay type: functional
[4] = biological target: T2, Type-1 angiotensin II receptor (Homo sapiens, UniProt P30556); experiment: Binding affinity for Angiotensin II receptor, type 1
T2 sequence (P30556 whole entry): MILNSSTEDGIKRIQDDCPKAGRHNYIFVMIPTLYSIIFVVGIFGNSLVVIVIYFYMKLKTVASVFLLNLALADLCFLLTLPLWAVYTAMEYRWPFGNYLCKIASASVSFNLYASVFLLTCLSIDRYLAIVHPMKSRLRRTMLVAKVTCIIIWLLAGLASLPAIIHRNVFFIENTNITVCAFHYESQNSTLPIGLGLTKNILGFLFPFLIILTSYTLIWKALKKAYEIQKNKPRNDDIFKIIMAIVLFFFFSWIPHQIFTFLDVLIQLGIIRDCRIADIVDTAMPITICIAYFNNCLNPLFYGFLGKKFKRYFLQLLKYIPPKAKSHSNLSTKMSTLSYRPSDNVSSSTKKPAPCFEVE

Q: For `CCCc1nc(CC)c(C(=O)O)n1Cc1ccc(-c2ccccc2-c2nnn[nH]2)cc1`, which IC50 [1] is on record?
A: Its IC50 is > 1000 nM.

Q: What about the ED30 [2] of the same molecule?
A: The ED30 was 0.03 mg/kg.

Q: And the ED30 [3]?
A: Its ED30 is 0.005 mg/kg.

Q: What about the IC50 [4] of the same molecule?
A: Its IC50 is 6 nM.

Q: Which IC50 [1] does the source give for `CCCc1nc(CC)c(C(=O)OCc2ccccc2Sc2ccccc2)n1Cc1ccc(-c2ccccc2S(=O)(=O)NC(=O)OCCC(C)C)cc1F` here?
A: The IC50 was 2 nM.

Q: What about the IC50 [4] of the same molecule?
A: The IC50 was 1 nM.

Q: Which IC50 [1] does the source give for `CCCc1nc(CC)c(C(=O)OCc2ccccc2S(=O)(=O)c2ccccc2)n1Cc1ccc(-c2ccccc2S(=O)(=O)NC(=O)OCCC(C)C)cc1F` here?
A: Its IC50 is 5 nM.

Q: What about the IC50 [4] of the same molecule?
A: The IC50 was 0.4 nM.

Q: What does the source list for `CCCc1nc(CC)c(C(=O)OCCCC(=O)c2ccccc2)n1Cc1ccc(-c2ccccc2S(=O)(=O)NC(=O)OCCC(C)C)cc1F`?
A: IC50 [1]: 5 nM; IC50 [4]: 0.1 nM

Q: Which IC50 [1] does the source give for `CCCc1nc(CC)c(C(=O)OCCCOCc2ccccc2)n1Cc1ccc(-c2ccccc2S(=O)(=O)NC(=O)OCCC(C)C)cc1F` here?
A: Its IC50 is 2 nM.

Q: What about the IC50 [4] of the same molecule?
A: Its IC50 is 0.1 nM.

Q: For `CCCOC(=O)NS(=O)(=O)c1ccccc1-c1ccc(Cn2c(CCC)nc(CC)c2C(=O)OCc2ccccc2C(=O)c2ccccc2)c(F)c1`, which IC50 [1] is on record?
A: Its IC50 is 1.6 nM.

Q: And the ED30 [2]?
A: The ED30 was 0.7 mg/kg.

Q: And the ED30 [3]?
A: The ED30 was 0.08 mg/kg.

Q: And the IC50 [4]?
A: Its IC50 is 0.28 nM.

Q: `CCCCOC(=O)NS(=O)(=O)c1ccccc1-c1ccc(Cn2c(CCC)nc(CC)c2C(=O)OCc2ccccc2C(=O)c2ccccc2)c(F)c1` was tested. Which IC50 [1] did it give?
A: The IC50 was 0.9 nM.

Q: What about the IC50 [4] of the same molecule?
A: Its IC50 is 0.2 nM.

Q: Which IC50 [1] does the source give for `CCCc1nc(CC)c(C(=O)OCCCSc2ccccc2)n1Cc1ccc(-c2ccccc2S(=O)(=O)NC(=O)OCCC(C)C)cc1F` here?
A: Its IC50 is 2 nM.

Q: What about the IC50 [4] of the same molecule?
A: The IC50 was 0.2 nM.

Q: How did the IC50 [1] turn out when `CCCc1nc(CC)c(C(=O)OCc2ccccc2C(=O)c2ccccc2)n1Cc1ccc(-c2ccccc2S(=O)(=O)NC(=O)OCCC(C)C)cc1F` was run?
A: The IC50 was 0.7 nM.

Q: And the ED30 [2]?
A: Its ED30 is 0.9 mg/kg.

Q: And the ED30 [3]?
A: Its ED30 is 0.05 mg/kg.

Q: What about the IC50 [4] of the same molecule?
A: Its IC50 is 0.5 nM.

Source: ChEMBL document CHEMBL1150518, “Balanced angiotensin II receptor antagonists. III. The effects of substitution at the imidazole 5-position” (Bioorg Med Chem Lett, 1994)
